Laboratory results published in patent publication US20150104868A1, “Methods of Maintaining and Improving Biological Cell Function and Activity” (GARGILL INCORPORATED, priority 2012, published 2015).

What was measured:
[1] = in vivo, po; cited from earlier work
[2] = test system: Human 1.1E7 beta cells; experiment: 1.1E7 beta cell viability (trypan blue, Countess); type: cell-based; conditions: 10, 30, 45 mM glucose, with or without 5 mM ERT
Method: Cell culture: Human 1.1E7 beta cells were cultured in RPMI 1640 medium containing 10% fetal calf serum, 2 mM L-Glutamine and 1% penicillin/streptomycin. Cells were maintained at 37° C. in a 5% CO2 atmosphere.
Viability: Cells were seeded in a 24 well plate. After overnight attaching, the medium was removed and cells were washed with HBSS. […] After 1 hour incubation a vehicle or glucose solution was added to a final concentration of 10, 30 or 45 mM in the wells. Subsequently, cells were incubated for 24 hours, 48 hours, 6 days, and 7 days. After incubation, all cell material including medium and HBSS was collected and centrifuged (5 minutes, 500×g). Supernatant was removed and cells were resuspended in 100 μl HBSS. Cell suspensions were diluted 1:1 in 0.4% trypan blue dye and loaded in a Countess Chamber. Cells were counted using the Invitrogen Countess® automated cell counter (Life Technologies Europe BV, Bleiswijk, the Netherlands).

[3] = test system: Geotrichum candidum cells (GCC); experiment: Function and activity of freeze-dried Geotrichum candidum culture; type: cell-based
From the text: A starter culture with Geotrichum candidum cells (GCC) was produced by ID growing GCC in a medium containing 10% glucose and other nutrients. […] The function and activity of GCC was reduced during such preservation process. […] Function and activity was expressed by measuring how many doses GCC culture with a standardized amount of activity and function can be obtained per liter fermentation broth.

[4] = test system: erythrocytes; conditions: in vitro model of radical-induced hemolysis; cited from earlier work
[5] = test system: HUVEC cells; experiment: Eicosanoids in HUVEC pellets and supernatants; type: cell-based, human
Method: Another parameter evaluated in the targeted assays included the study of 23 eicosanoids in a comparison of HG versus HGERT conditions.
In studying the supernatants, 14,15-dihydroxy-5Z,8Z,11Z-eicosatrienoate (14,15-DiHETrE), produced from arachidonic acid via Cyp 2C and 2J to form epoxyeicosatrienoic acids (EETs), then converted to DiHETrE via sEH, decreased from 0.0085 to 0.0040 nM (p<0.05). This decrease in 14,15-DiHETrE is consistent with high glucose suppression of sEH, and should result in increased EETs, which would produce vasodilation. EETs were not, however, observed to be increased.

[6] = Human study in patients with Type 2 diabetes mellitus (blood glucose, insulin, C-peptide); type: in vivo; conditions: Type 2 diabetes patients, 12 g three times daily 28 days; before vs 2 hrs after 12 g intake
Method: A human study was conducted in patients with Type 2 diabetes mellitus. Patients were enrolled who were otherwise healthy patients with Type 2 diabetes mellitus as defined by fasting blood glucose >125 mg/dl or with ongoing treatment for Type 2 diabetes mellitus with the exception of insulin. […] Two hours after, blood drawings were taken again. […] After testing each variable for normality, a paired t-test was performed to determine statistical significance. For variables with a non-normal distribution, a Wilcoxon signed rank test was used. All analyses were performed using SPSS (IBM, version 19). Compliance was determined based on a count of empty sachets returned by study participants. Twenty-four subjects were enrolled and none withdrew from the study.

[7] = test system: Mouse intestine (entero-endocrine) STC-1 cells; conditions: STC-1 cells, 10% w/v, 2 hours at 37° C.
Method: Appropriate blanks, positive controls, and standards were also included.
The lactate dehydrogenase (LDH) leakage from cells was analyzed in the supernatants as a marker for cytotoxic cell death.

[8] = test system: HUVEC cells; conditions: ERT by itself, non-diabetic conditions; cited from earlier work
[9] = test system: HUVEC cells; experiment: Oxidative damage: protein carbonyls in HUVEC; type: cell-based, human; conditions: HG 30 mM glucose 24 h, with or without 5 mM ERT/MAN
Method: The prepared cells were seeded in 6 well plates and T75 flasks and grown until 80% confluence. The medium was removed, and the cells were washed with Hank's Balanced Salt Solution (HBSS). […] The vehicle solution is the solvent for the test compounds, in this case being the medium without supplements. […] The cells described above were also incubated for 24 hours with a 7 mM, normal glucose (NG) solution or in some instances, with a 15 mM, intermediary glucose (IG) solution. See, for example, FIG. 6. Subsequently, the cells were incubated for 24 hours. The same protocol was used for incubation with Nε-(carboxymethyl)lysine (CML, final concentration 1 micromolar) and 1,3-morpholino sidnonimine (SIN-1, final concentration 0.5 mM). […] Hyperglycemia is strongly associated with oxidative stress, an imbalance between the formation of reactive oxygen species and the present antioxidants. Excess reactive oxygen species react with critical cellular targets, viz. membrane lipids, proteins and (deoxy)ribonucleic acids. […] Accordingly, one of the targeted assays included studying a comparison of HG to HGERT conditions, where the oxidative damage was evaluated showing that the protein carbonyls decreased from 6.55 nM/mg protein with HG to 3.77 with […]=0.089). Protein carbonyls are end products of reactions between proteins and reactive oxygen species (ROS), formed during oxidative stress. […]

Structure (SMILES): OC[C@@H](O)[C@@H](O)CO [ERT, meso-1,2,3,4-tetrahydroxybutane]
- excretion [1]: excreted unchanged in the urine
- metabolism [1]: not metabolized
- viability of 1.1E7 cells ([2]; 6 and 7 days): entirely prevented this decrease in beta cell viability
- viability of 1.1E7 cells ([2]; 24 and 48 hours): did not have any impact on this maintained viability
- Change in GCC cell activity and function (blank set at 100) ([3]; 2% ERT): 120
- improvement of GCC activity and function ([3]; 2% ERT): 20%
- Doses/ltr fermentation broth ([3]; 2% ERT added before freeze drying): 621 Doses/ltr
- Change in GCC cell activity and function (blank set at 100) ([3]; 3% ERT): 126
- improvement of GCC activity and function ([3]; 3% ERT): 26%
- Doses/ltr fermentation broth ([3]; 3% ERT added before freeze drying): 652 Doses/ltr
- Change in GCC cell activity and function (blank set at 100) ([3]; 5% ERT): 107
- increase of GCC activity and function ([3]; 5% ERT): 8%
- Doses/ltr fermentation broth ([3]; 5% ERT added before freeze drying): 555 Doses/ltr
- onset of oxidative damage, ABTS-induced hemolysis [4]: able to delay the onset of oxidative damage
- 14,15-DiHETrE in supernatants ([5]; HG vs HGERT): 4 pM
- TXB2 ([5]; HG vs HGERT): 1.20
- 12-HETE in pellets ([5]; HGERT vs HG): decreasing 12-HETE levels
- blood C-peptide levels [6]: increase in blood C-peptide levels
- blood glucose levels [6]: borderline significant decrease in blood glucose levels
- blood insulin levels [6]: non-significant increase in insulin levels
- cell death (leakage of lactate dehydrogenase) [7]: cells could tolerate higher concentrations of ERT than glucose and other sugars tested
- viability, oxidative damage, SOD activity, nitric oxide production, adhesion molecule production, transcriptome [8]: did not show changes
- protein carbonyls [9]: 3.77 nM/mg protein
